The source of these data is US8044198B2, “Sirtuin modulating compounds” (Sirtris Pharmaceuticals, Inc., priority 2005, dated 2011).

Read-outs that look alike come from different tables or passages of the source.

The target in the assay is T1, SIRT1 (Homo sapiens, UniProt Q96EB6).
T1 sequence (Q96EB6 1-747): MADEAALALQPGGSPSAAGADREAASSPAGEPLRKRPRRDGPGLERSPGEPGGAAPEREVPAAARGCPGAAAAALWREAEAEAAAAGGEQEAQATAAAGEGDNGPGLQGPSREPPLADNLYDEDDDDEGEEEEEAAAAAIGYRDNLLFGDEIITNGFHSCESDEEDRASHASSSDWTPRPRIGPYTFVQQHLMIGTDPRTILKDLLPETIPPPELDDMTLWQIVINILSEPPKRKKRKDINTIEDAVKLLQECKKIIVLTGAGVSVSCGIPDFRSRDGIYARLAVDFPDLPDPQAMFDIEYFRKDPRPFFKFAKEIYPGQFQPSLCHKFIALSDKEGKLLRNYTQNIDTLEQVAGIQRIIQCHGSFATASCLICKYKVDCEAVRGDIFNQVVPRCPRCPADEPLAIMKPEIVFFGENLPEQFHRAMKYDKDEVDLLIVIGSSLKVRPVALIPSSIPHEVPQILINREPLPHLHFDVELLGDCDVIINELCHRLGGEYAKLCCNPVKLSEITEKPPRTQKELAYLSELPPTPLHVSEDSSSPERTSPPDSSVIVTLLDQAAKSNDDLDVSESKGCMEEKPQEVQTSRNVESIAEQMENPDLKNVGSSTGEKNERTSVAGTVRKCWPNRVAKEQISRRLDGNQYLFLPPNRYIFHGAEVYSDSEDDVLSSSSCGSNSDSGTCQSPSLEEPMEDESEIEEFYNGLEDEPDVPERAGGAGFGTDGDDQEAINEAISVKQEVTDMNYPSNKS
Description: SIRT1 mass spectrometry (MS) based deacetylation assay. On FOLD ACT. MS: test concentration or dose not given here. It counts as biochemical.

Setting [1] is: SIRT1 activation, mass spectrometry assay, read-out: ED50 MS ASSAY.
The mark [2] stands for this setting: fold activation of SIRT1 as determined by MS.

`COc1cc(C(=O)Nc2ccccc2-c2cccs2)cc(OC)c1OC` [336 10]: under setting [1], the EC50 fell in the range of 5 to 50 µM. The “FOLD ACT. MS” value (fold activation of SIRT1, mass spectrometry assay) is reported as “B (B (Fold Activation <250%))”.

Turning to `O=C(Nc1cccc(-c2nc3ncccc3o2)c1)c1ccccc1` [Compound 56], under setting [1], the EC50 is 5 to 50 µM. Also, the “FOLD ACT. MS” value under setting [2] is reported as “B (B (Fold Activation <250%))”.

For `COc1cc(C(=O)Nc2cccc(-c3nc4ncccc4o3)n2)cc(OC)c1OC` [Compound 57], under setting [1], the EC50 lay in the range of 5 to 50 µM.

In the case of `COc1ccc(S(=O)(=O)Nc2cccc(-c3nc4ncccc4o3)n2)cc1OC` [Compound 60], the EC50 under setting [1] lay in the range of 5 to 50 µM.

Take `COc1ccc(C(=O)Nc2cc(-c3nc4ncccc4o3)ccn2)cc1OC` [Compound 63]: the EC50 under setting [1] is 5 to 50 µM.

In the case of `CN(C)c1cccc(C(=O)Nc2cccc(-c3nc4ncccc4o3)n2)c1` [Compound 64], the EC50 under setting [1] lay within 5 to 50 µM.

On to `COc1cc(C(=O)Nc2cncc(-c3nc4ncccc4o3)c2)cc(OC)c1OC` [Compound 66], for which, under setting [1], the EC50 lay in the range of 5 to 50 µM.

`COc1ccc(C(=O)Nc2cncc(-c3nc4ncccc4o3)c2)cc1OC` [Compound 67]: the EC50 under setting [1] is 5 to 50 µM.

Regarding `CN(C)c1cccc(C(=O)Nc2cncc(-c3nc4ncccc4o3)c2)c1` [Compound 68], under setting [1], the EC50 fell in the range of 5 to 50 µM.

In the case of `COc1ccc(C(=O)Nc2cccc(-c3nc4ncccc4o3)n2)c(OC)c1` [Compound 69], under setting [1], the EC50 lay within 5 to 50 µM. Besides, the “FOLD ACT. MS” value under setting [2] was “B (B (Fold Activation <250%))”.

In the case of `CN(C)c1ccc(C(=O)Nc2cccc(-c3nc4ncccc4o3)n2)cc1` [Compound 70], the EC50 under setting [1] lay in the range of 5 to 50 µM. Under setting [2], the “FOLD ACT. MS” value was “B (B (Fold Activation <250%))”.

In the case of `O=C(Nc1ccc2c(c1)OCO2)Nc1cccc(-c2nc3ncccc3o2)n1` [Compound 71], the EC50 under setting [1] was 5 to 50 µM. Further, the “FOLD ACT. MS” value under setting [2] is given as “B (B (Fold Activation <250%))”.

For `COc1ccc(S(=O)(=O)Nc2cncc(-c3nc4ncccc4o3)c2)cc1OC` [Compound 74], under setting [1], the EC50 is > 150 µM.

On to `COc1cc(C(=O)Nc2cc(-c3nc4ncccc4o3)ccn2)cc(OC)c1OC` [Compound 75], for which, under setting [1], the EC50 is 5 to 50 µM. Also, under setting [2], the “FOLD ACT. MS” value was “B (B (Fold Activation <250%))”.

In the case of `CN(C)c1cccc(C(=O)Nc2cc(-c3nc4ncccc4o3)ccn2)c1` [Compound 76], the EC50 under setting [1] lay in the range of 5 to 50 µM. Moreover, under setting [2], the “FOLD ACT. MS” value was “B (B (Fold Activation <250%))”.

With `COc1ccc(C(=O)Nc2cc(-c3nc4ccccc4o3)ccn2)cc1OC` [Compound 77], the EC50 lay in the range of 5 to 50 µM. Under setting [2], the “FOLD ACT. MS” value is reported as “B (B (Fold Activation <250%))”.

In the case of `COc1ccc(C(=O)Nc2cccc(-c3csc(C)n3)c2)cc1OC` [Compound 80], under setting [1], the EC50 is 5 to 50 µM. The “FOLD ACT. MS” value under setting [2] is recorded as “B (B (Fold Activation <250%))”.

As for `COc1ccc(C(=O)Nc2cccc(-c3csc(C)n3)c2)c(OC)c1` [Compound 81], the EC50 under setting [1] was 5 to 50 µM. Besides, the “FOLD ACT. MS” value under setting [2] was “B (B (Fold Activation <250%))”.

In the case of `COc1ccc(C(=O)Nc2cccc(-c3nnc(-c4ccccc4)o3)c2)c(OC)c1` [Compound 82], under setting [1], the EC50 fell in the range of 101 to 150 µM.

Regarding `COc1cc(SC)ccc1C(=O)Nc1cccc(-c2nncn2C)c1` [Compound 83], the EC50 under setting [1] was 5 to 50 µM. Besides, under setting [2], the “FOLD ACT. MS” value was “B (B (Fold Activation <250%))”.

As for `COc1ccc(C(=O)Nc2cccc(-c3csc(-c4ccccc4)n3)c2)cc1OC` [Compound 84], under setting [1], the EC50 was 5 to 50 µM. Also, under setting [2], the “FOLD ACT. MS” value is “B (B (Fold Activation <250%))”.

For `c1ccc2oc(N3CCCN(c4nc5ccccc5o4)CC3)nc2c1` [Compound 85], the EC50 under setting [1] is > 150 µM.

Regarding `CN(C)c1ccc(NC(=O)Nc2cccc(-c3nc4ncccc4o3)n2)cc1` [Compound 87], under setting [1], the EC50 is > 150 µM.

`COc1ccc(C(=O)N2CCCN(c3nc4ccccc4o3)CC2)c(OC)c1` [Compound 88]: the EC50 under setting [1] was > 150 µM.

`c1cc(Nc2nc3ccccc3s2)cc(-c2nc3ncccc3o2)c1` [Compound 95]: under setting [1], the EC50 was < 5 µM. In addition, the “FOLD ACT. MS” value under setting [2] is given as “B (B (Fold Activation <250%))”.

Take `COc1ccc(C(=O)Nc2ccccc2-c2nc3ncccc3o2)cc1OC` [Compound 96]: the EC50 under setting [1] is < 5 µM. The “FOLD ACT. MS” value under setting [2] is listed as “B (B (Fold Activation <250%))”.

For the molecule `CC(C)(C)c1ccc(S(=O)(=O)Nc2ccccc2-c2nc3ncccc3o2)cc1` [Compound 98], under setting [1], the EC50 is > 150 µM.

`O=C(NCc1ccc2c(c1)OCO2)c1cccc(-c2nc3ncccc3o2)c1` [Compound 103]: under setting [1], the EC50 was > 150 µM.

As to `COc1ccc(C(=O)Nc2cc(C(=O)N3CCNCC3)cc(-c3nc4ncccc4o3)c2)cc1OC` [Compound 107, 3,4-dimethoxy-N-(3-(oxazolo[4,5-b]pyridin-2-yl)-5-(piperazine-1-carbonyl)phenyl)benzamide], the EC50 under setting [1] lay in the range of 5 to 50 µM. For the same molecule, the “FOLD ACT. MS” value under setting [2] is recorded as “B (B (Fold Activation <250%))”.

In the case of `O=C(Nc1cccc(-c2nc3ncccc3o2)c1)c1ccccc1N1CCOCC1` [Compound 109], the EC50 under setting [1] lay within 5 to 50 µM. Further, under setting [2], the “FOLD ACT. MS” value is reported as “B (B (Fold Activation <250%))”.

Take `CN(C)c1cccc(C(=O)Nc2cccc(-c3nc4cccnc4o3)c2)c1` [Compound 111]: the EC50 under setting [1] was 5 to 50 µM. Also, under setting [2], the “FOLD ACT. MS” value is recorded as “B (B (Fold Activation <250%))”.

Consider `COc1ccc(C(=O)Nc2cccc(-c3nc4cccnc4o3)c2)cc1OC` [Compound 112], for which the EC50 under setting [1] is 5 to 50 µM. Under setting [2], the “FOLD ACT. MS” value is recorded as “B (B (Fold Activation <250%))”.

In the case of `CN(C)c1cccc(C(=O)Nc2cccc(-c3nc4ccncc4s3)c2)c1` [Compound 113], under setting [1], the EC50 lay in the range of 5 to 50 µM. Further, the “FOLD ACT. MS” value under setting [2] is reported as “B (B (Fold Activation <250%))”.

With `COc1ccc(C(=O)Nc2cccc(-c3nc4ccncc4s3)c2)cc1OC` [Compound 114], the EC50 under setting [1] was < 5 µM. Moreover, the “FOLD ACT. MS” value under setting [2] is “A (A (Fold activation >250%))”.

In the case of `COc1cc(C(=O)Nc2cccc(-c3nc4sccn4n3)c2)cc(OC)c1OC` [Compound 118], the EC50 under setting [1] is 5 to 50 µM. Under setting [2], the “FOLD ACT. MS” value is “A (A (Fold activation >250%))”.

With `COc1cccc(OC)c1C(=O)Nc1cccc(-c2nc3ccccc3o2)c1` [Compound 119], the EC50 under setting [1] is 5 to 50 µM. Also, the “FOLD ACT. MS” value under setting [2] is on record as “B (B (Fold Activation <250%))”.

For `COc1ccc(C(=O)Nc2cccc(-c3nc4ccccc4s3)c2)c(OC)c1` [Compound 124], the EC50 under setting [1] lay in the range of 5 to 50 µM. Further, under setting [2], the “FOLD ACT. MS” value is recorded as “B (B (Fold Activation <250%))”.

Take `COc1cc(C(=O)Nc2cccc(-c3nc4ccccc4c(=O)o3)c2)cc(OC)c1OC` [Compound 125]: the “FOLD ACT. MS” value under setting [2] was “B (B (Fold Activation <250%))”.

`COc1cccc(OC)c1C(=O)Nc1cccc(-c2nc3ccccc3[nH]2)c1` [Compound 126]: the EC50 under setting [1] is 5 to 50 µM. Further, the “FOLD ACT. MS” value under setting [2] is listed as “B (B (Fold Activation <250%))”.

As for `COc1ccc(C(=O)Nc2cccc(-c3cn4ccc(C)cc4n3)c2)c(OC)c1` [Compound 128], the EC50 under setting [1] lay in the range of 5 to 50 µM. Also, the “FOLD ACT. MS” value under setting [2] is “B (B (Fold Activation <250%))”.

In the case of `COc1cc(C(=O)Nc2cccc(-c3cn4ccc(C)cc4n3)c2)cc(OC)c1OC` [Compound 129], the EC50 under setting [1] was < 5 µM. Under setting [2], the “FOLD ACT. MS” value was “A (A (Fold activation >250%))”.

As to `COc1ccc(C(=O)Nc2cccc(-c3cn4ccc(C)cc4n3)c2)cc1` [Compound 130], under setting [1], the EC50 was in the range of 5 to 50 µM. For the same molecule, the “FOLD ACT. MS” value under setting [2] is “B (B (Fold Activation <250%))”.

In the case of `COc1cc(C(=O)Nc2cccc(-c3cn4cccc(C)c4n3)c2)cc(OC)c1OC` [Compound 131], the EC50 under setting [1] was in the range of 5 to 50 µM. Also, the “FOLD ACT. MS” value under setting [2] was “A (A (Fold activation >250%))”.

As to `COc1ccccc1C(=O)Nc1cccc(-c2cn3ccsc3n2)c1` [Compound 132], under setting [1], the EC50 is 5 to 50 µM. Also, the “FOLD ACT. MS” value under setting [2] is “A (A (Fold activation >250%))”.

Regarding `COC(=O)c1cc(NC(=O)c2cc(OC)c(OC)c(OC)c2)cc(-c2nc3ccncc3s2)c1` [Compound 133, methyl 3-(thiazolo[5,4-c]pyridin-2-yl)-5-(3,4,5-trimethoxybenzamido)benzoate], under setting [1], the EC50 is < 5 µM. The “FOLD ACT. MS” value under setting [2] was “B (B (Fold Activation <250%))”.

`COc1cc(C(=O)Nc2cc(C(=O)O)cc(-c3nc4ccncc4s3)c2)cc(OC)c1OC` [Compound 134, 3-(thiazolo[5,4-c]pyridin-2-yl)-5-(3,4,5-trimethoxybenzamido)benzoic acid]: under setting [1], the EC50 is < 5 µM. In addition, under setting [2], the “FOLD ACT. MS” value is “B (B (Fold Activation <250%))”.

In the case of `COC(=O)c1cc(NC(=O)c2ccc(OC)c(OC)c2)cc(-c2nc3ncccc3o2)c1` [Compound 136, Methyl 3-(3,4-dimethoxybenzamido)-5-(oxazolo[4,5-b]pyridin-2-yl)benzoate], under setting [1], the EC50 was > 150 µM.

Take `CN(C)c1cccc(C(=O)Nc2cc(C(=O)N3CCNCC3)cc(-c3nc4ncccc4o3)c2)c1` [Compound 138]: the EC50 under setting [1] was in the range of 5 to 50 µM. In addition, the “FOLD ACT. MS” value under setting [2] is listed as “B (B (Fold Activation <250%))”.

In the case of `COc1ccc(C(=O)Nc2cc(C(=O)N3CCNCC3)cc(-c3nc4ncccc4o3)c2)c(OC)c1` [Compound 139], under setting [1], the EC50 fell in the range of 5 to 50 µM. Also, under setting [2], the “FOLD ACT. MS” value is on record as “B (B (Fold Activation <250%))”.
